# Values of other authors, collected in patent US20030031676A1, “Conjugate compounds for treating atheroma and other diseases” (Pharmacyclics, Inc., priority 1999, published 2003).
# Settings: animal models
substance,measurement,value
lutetium (III) texaphyrin,radiation sensitization activity,lack of radiation sensitization activity
